Experimental data reported in patent publication US20130072383A1, “METHOD FOR ANTI-SPROUTING AND POSSIBLY FUNGICIDAL TREATMENT OF BULBS AND/OR TUBERS USING CLOVE OIL AND MINT OIL” (priority 2010, published 2013).

Test system: Bintje, Nicola and Charlotte potatoes
Assay: Sprout-inhibiting treatment of stored potatoes over 6 months, sprout weights (Example 1)
Assay type: in vivo
Conditions: used alone
Experimental: The sprout-inhibiting treatments were carried out over a 6-month period.
The mint oil used contained about 70% L-carvone and the clove oil used contained about 90% eugenol.
The tested potatoes were Bintje, Nicola and Charlotte varieties.
An anti-sprouting composition A consisting of a mixture of clove oil (supplied by Charabot (Grasse)/ mint oil (supplied by Charabot (Grasse) at 2:1 v/v was prepared. The densities of mint and clove are respectively 0.94 and 1.04. This composition was applied to the potatoes using Electrofog Xeda 3000 equipment at an output temperature of 210° C., • at an initial dose of 90 grams of composition per tonne of potatoes, • at subsequent doses of 30 grams of composition per tonne of potatoes every three weeks.
For comparison, some potatoes were treated: • B: either with mint oil alone
at an initial dose of 90 grams of mint oil per tonne of potatoes,
at subsequent doses of 30 grams of mint oil per tonne of potatoes every three weeks; • C: or with clove oil alone
at an initial dose of 90 grams of clove oil per tonne of potatoes,
at subsequent doses of 30 grams of clove oil per tonne of potatoes every three weeks; • D: or with CIPC (Xedamate Aerosol 88 containing 20% CIPC) by thermal fogging:
at an initial dose of 60 grams of Xedamate Aerosol 88 per tonne of potatoes, […]

L-carvone
Anti-sprouting activity relative to reference product CIPC: comparable with the reference product (CIPC)
